Source: PMC4077706, “Lifting the Mask: Identification of New Small Molecule Inhibitors of Uropathogenic Escherichia coli Group 2 Capsule Biogenesis” (PLoS ONE, 2014)
Where two headings read alike, the source gives them in different places.

Legend:
[1] = biological target: Nicotinic Acetylcholine α1, Bungarotoxin (Homo sapiens, UniProt P02708+P07510+Q07001); type: binding; details: 10 µM
Adrenergic α1B = biological target: T1, Adrenergic α1B (Rattus norvegicus, UniProt P15823); type: binding; details: 10 µM
T1 construct: Wistar Rat liver; tissue Eurofins Panlabs (assay Cat #) 203200; host or cells: Wistar rat liver

[2] = biological target: T2, Transporter, Norepinephrine (NET) (Homo sapiens, UniProt P23975); type: binding; details: 10 µM
T2 construct: host or cells: MDCK
T2 sequence (P23975 whole entry): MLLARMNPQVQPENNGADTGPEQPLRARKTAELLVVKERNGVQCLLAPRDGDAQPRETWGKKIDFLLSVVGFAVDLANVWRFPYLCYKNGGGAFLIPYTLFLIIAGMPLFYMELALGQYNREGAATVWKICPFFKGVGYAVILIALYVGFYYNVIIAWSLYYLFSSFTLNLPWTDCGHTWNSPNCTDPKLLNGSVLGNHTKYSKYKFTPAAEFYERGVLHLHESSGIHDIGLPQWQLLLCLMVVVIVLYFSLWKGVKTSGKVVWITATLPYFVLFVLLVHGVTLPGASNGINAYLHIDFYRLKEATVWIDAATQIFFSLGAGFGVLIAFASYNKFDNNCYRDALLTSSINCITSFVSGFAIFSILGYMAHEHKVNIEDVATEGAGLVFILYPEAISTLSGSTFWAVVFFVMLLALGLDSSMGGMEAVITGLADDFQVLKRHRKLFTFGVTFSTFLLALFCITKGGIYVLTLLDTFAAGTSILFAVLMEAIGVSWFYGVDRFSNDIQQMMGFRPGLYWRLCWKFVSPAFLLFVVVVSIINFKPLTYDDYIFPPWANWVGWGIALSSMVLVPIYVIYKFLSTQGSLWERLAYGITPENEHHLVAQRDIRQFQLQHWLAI

[3] = Mouse
[4] = type: physicochemical
Description: SI2-Supporting Information- Goller et al.
Experimental procedures for aqueous and LB medium solubility, hepatic microsome stability, PAMPA permeability, and plasma stability
Aqueous and LB Medium Solubility: Solubility analysis was performed using a direct UV kinetic solubility method in a 96-well format. All liquid dispense and transfer steps were performed with the Freedom Evo automated liquid handler (Tecan US). Solubility measurements were performed in buffer solution (PBS (pH 7.4) or LB medium), in duplicate. Samples were incubated at room temperature for a minimum of 18 hrs to achieve equilibrium, then filtered (filter plate, pION Inc, P/N 110322) to remove any precipitate formed. The concentration of the compounds was measured by UV absorbance (250-498 nm) using the Infinite M200 (Tecan US) and compared to the spectra of the precipitation-free reference solutions. Spectroscopically pure 1-Propanol (Sigma P/N 256404) was used as a cosolvent to suppress precipitation in the reference solutions.
The solubility of each compound was determined using µSOL Evolution Plus software v3.2 (pION Inc) and is expressed as the concentration (µg/mL) of a solute in a saturated solution. […]
Hepatic Microsome Stability: Metabolic stability was assessed in the presence of human liver microsomes (XenoTech, P/N H0630) and mouse liver microsomes (XenoTech, P/N M1000). […]

Adrenergic α1A = biological target: T3, Adrenergic α1A (Rattus norvegicus, UniProt P43140); assay: Radioligand binding 203100; details: 10 µM
T3 construct: Wistar Rat submaxillary gland; tissue Eurofins Panlabs (assay Cat #) 203100; host or cells: Wistar rat submaxillary gland

Adrenergic β1 = biological target: T4, Adrenergic β1 (Homo sapiens, UniProt P08588); type: binding; details: 10 µM
T4 construct: host or cells: CHO-K1 cells
T4 sequence (P08588 whole entry): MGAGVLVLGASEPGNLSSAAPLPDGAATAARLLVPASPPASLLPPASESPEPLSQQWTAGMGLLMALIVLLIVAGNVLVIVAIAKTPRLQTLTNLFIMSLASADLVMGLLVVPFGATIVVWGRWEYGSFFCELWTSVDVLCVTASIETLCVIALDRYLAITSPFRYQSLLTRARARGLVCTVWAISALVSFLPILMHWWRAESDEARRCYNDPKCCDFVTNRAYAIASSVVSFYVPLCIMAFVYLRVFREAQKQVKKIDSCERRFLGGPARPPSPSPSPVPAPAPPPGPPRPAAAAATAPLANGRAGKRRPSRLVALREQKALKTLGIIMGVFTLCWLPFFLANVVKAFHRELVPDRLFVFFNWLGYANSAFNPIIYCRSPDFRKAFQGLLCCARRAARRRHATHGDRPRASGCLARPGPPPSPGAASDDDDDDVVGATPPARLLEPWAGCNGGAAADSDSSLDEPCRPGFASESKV

Adrenergic α1D = biological target: T5, Adrenergic α1D (Homo sapiens, UniProt P25100); type: binding; details: 10 µM
T5 construct: host or cells: HEK-293 cells
T5 sequence (P25100 whole entry): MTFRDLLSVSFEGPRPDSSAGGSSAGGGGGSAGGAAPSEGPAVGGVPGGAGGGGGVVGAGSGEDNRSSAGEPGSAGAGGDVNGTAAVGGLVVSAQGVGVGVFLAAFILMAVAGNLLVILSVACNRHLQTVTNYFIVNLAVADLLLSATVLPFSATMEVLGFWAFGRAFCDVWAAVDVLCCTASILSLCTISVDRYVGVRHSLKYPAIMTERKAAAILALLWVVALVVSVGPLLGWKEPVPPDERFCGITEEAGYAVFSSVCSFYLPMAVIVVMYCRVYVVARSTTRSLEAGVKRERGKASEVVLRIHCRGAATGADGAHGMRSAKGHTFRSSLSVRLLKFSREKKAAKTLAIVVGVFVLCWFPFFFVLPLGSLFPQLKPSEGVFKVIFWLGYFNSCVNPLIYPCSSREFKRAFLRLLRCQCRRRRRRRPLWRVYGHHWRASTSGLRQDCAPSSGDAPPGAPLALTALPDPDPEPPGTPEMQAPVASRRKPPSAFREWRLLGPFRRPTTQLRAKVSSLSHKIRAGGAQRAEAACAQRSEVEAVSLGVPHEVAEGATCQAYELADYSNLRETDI

Bradykinin B2 = Bradykinin B2 (Homo sapiens, UniProt P30411); type: binding; parameters: host or cells: Chem-1 cells; details: 10 µM
Dopamine D3 = biological target: T6, Dopamine D3 (Homo sapiens, UniProt P35462); type: binding; details: 10 µM
T6 construct: host or cells: CHO cells
T6 sequence (P35462 whole entry): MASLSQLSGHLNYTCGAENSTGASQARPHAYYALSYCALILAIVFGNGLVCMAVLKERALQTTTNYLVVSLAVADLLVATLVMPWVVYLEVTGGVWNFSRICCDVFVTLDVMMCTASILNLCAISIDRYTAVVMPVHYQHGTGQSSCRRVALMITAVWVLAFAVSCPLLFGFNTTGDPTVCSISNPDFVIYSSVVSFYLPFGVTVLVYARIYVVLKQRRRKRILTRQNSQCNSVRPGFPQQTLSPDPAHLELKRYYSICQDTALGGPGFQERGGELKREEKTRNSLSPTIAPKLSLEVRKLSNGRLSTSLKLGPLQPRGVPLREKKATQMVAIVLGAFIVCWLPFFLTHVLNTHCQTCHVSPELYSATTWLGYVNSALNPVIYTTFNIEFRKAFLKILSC

[5] = biological target: Calcium Channel L-Type, Benzothiazepine (Rattus norvegicus, UniProt P22002); type: binding; details: 10 µM
Opiate κ(OP2, KOP) = Opiate κ(OP2, KOP) (Homo sapiens, UniProt P41145); type: binding; details: 10 µM
[6] = Human
Muscarinic M2 = biological target: T7, Muscarinic M2 (Homo sapiens, UniProt P08172); assay: Radioligand binding 252710; details: 10 µM
T7 construct: host or cells: CHO-K1 cells
T7 sequence (P08172 whole entry): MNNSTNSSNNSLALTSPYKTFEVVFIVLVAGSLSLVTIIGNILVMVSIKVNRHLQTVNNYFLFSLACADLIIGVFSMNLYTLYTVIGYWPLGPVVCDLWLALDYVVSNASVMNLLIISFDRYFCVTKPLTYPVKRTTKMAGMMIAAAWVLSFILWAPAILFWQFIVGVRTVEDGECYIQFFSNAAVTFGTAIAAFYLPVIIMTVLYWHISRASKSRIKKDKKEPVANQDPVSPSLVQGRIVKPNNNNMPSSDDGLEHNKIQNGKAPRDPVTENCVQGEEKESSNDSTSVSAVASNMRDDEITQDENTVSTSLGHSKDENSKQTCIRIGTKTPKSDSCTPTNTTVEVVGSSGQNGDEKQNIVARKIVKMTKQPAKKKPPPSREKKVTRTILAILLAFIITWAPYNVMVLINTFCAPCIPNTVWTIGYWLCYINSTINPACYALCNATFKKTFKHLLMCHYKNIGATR

Histamine H1 = biological target: T8, Histamine H1 (Homo sapiens, UniProt P35367); type: binding; details: 10 µM
T8 construct: host or cells: CHO-K1 cells

Glutamate, NMDA, Glycine = Glutamate, NMDA, Glycine (Rattus norvegicus, UniProt P35439); type: binding; parameters: Wistar Rat cerebral cortex; tissue Eurofins Panlabs 232910; host or cells: Wistar rat cerebral cortex; details: 10 µM
[7] = biological target: T9, Serotonin (5-Hydroxytryptamine) 5-HT1A (Homo sapiens, UniProt P08908); assay: Radioligand binding 271110; details: 10 µM
T9 construct: host or cells: CHO-K1

Calcium Channel N-Type = Calcium Channel N-Type (Rattus norvegicus, UniProt Q02294); assay: biochemical; type: binding; details: 10 µM
Chain of Calcium Channel N-Type (Q02294 whole entry, looked up): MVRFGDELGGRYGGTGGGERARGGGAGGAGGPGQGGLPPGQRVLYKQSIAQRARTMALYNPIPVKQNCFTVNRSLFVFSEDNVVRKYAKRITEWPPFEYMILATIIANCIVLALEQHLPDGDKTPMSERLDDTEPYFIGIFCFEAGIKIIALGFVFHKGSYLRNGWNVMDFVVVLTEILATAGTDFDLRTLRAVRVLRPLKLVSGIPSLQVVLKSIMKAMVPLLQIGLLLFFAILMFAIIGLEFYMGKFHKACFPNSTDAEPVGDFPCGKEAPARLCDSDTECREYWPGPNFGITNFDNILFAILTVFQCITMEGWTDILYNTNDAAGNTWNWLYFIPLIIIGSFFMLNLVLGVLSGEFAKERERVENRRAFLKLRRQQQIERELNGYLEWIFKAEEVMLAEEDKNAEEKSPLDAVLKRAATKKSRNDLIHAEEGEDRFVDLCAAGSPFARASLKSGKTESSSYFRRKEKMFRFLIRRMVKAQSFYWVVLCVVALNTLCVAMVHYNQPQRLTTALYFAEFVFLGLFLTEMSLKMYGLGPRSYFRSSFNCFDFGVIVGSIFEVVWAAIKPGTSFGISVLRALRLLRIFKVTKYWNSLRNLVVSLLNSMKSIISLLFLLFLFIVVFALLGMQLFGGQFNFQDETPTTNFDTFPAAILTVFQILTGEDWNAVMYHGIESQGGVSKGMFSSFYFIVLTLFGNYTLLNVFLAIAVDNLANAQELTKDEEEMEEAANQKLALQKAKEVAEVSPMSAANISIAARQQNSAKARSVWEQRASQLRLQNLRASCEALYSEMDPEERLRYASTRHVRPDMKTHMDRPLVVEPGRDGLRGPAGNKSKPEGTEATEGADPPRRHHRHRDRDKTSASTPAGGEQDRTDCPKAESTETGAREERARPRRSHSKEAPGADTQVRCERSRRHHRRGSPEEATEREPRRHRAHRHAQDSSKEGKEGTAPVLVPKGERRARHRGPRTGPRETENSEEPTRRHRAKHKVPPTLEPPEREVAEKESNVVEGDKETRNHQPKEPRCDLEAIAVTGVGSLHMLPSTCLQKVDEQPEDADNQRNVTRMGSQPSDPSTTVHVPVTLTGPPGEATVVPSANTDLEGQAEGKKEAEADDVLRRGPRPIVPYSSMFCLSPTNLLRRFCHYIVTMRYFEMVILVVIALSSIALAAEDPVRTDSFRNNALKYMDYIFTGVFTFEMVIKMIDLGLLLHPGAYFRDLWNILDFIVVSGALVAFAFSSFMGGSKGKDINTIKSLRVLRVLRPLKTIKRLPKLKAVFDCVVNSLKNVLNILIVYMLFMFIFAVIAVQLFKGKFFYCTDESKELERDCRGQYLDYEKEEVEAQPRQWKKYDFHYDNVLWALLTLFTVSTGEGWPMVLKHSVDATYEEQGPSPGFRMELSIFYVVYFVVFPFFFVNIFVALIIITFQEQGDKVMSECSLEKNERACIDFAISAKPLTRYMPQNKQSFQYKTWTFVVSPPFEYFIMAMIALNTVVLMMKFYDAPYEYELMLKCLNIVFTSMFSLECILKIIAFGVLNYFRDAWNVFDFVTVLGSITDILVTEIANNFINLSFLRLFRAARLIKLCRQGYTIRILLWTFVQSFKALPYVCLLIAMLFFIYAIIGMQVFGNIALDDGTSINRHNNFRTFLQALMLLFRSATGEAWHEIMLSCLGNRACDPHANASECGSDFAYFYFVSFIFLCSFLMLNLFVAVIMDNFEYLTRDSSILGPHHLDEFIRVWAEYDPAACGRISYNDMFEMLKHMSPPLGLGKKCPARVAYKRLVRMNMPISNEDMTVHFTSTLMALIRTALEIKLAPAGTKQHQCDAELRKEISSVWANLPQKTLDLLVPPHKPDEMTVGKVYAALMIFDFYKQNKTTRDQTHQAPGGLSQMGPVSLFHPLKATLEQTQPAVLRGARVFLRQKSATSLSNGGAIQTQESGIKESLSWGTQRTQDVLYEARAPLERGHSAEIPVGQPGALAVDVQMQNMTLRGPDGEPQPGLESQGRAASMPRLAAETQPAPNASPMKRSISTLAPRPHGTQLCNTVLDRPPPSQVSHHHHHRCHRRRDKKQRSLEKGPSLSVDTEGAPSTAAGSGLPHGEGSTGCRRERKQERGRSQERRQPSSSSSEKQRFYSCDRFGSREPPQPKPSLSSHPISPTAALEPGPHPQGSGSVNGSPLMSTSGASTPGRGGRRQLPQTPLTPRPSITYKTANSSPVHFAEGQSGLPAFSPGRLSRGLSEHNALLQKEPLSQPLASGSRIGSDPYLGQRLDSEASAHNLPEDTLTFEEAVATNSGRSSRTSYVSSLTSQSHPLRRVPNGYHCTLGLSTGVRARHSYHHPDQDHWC

[8] = pre-treatment of bacteria without pretreatment of the mice

CCOc1ccc(-c2cc(NC(=O)c3c(F)cccc3F)c(C(=O)O)s2)cc1 [DU011]
PAMPA Permeability Pe (Donor pH 5.0, acceptor pH 7.4): 14 ×10⁻⁶ cm/s
PAMPA Permeability Pe (Donor pH 6.2, acceptor pH 7.4): 209 ×10⁻⁶ cm/s
PAMPA Permeability Pe (Donor pH 7.4, acceptor pH 7.4): 52 ×10⁻⁶ cm/s
% Inh. [1]: 8%
% Inh. (Adrenergic α1B): 14%
% Inh. [2]: 58%
Plasma Stability, percent remaining at 3 hrs [3]: 78.39%
Aqueous Solubility ([4]; 1× PBS): 92.6 µg/mL
Aqueous Solubility ([4]; LB medium): 68 µg/mL
% Inh. (Adrenergic α1A): -3%
body weight (E. coli UTI89; [8]): ongoing weight loss among surviving animals
survival (E. coli UTI89; [8]): 50%
body weight (E. coli UTI89; pretreatment of the bacteria and mice): recovery of pre-infection weights
survival (E. coli UTI89; pretreatment of the bacteria and mice, 48 hrs, 10^8 CFU UTI89 i.p.): 100%
tolerability in mice (E. coli UTI89; subcutaneous 100 µL of 1 mg/ml twice daily): without evident side effects
body weight (E. coli UTI89; subcutaneous DU011 and untreated UTI89): stabilization of weights at the end of the experiment
survival (E. coli UTI89; subcutaneous DU011 and untreated UTI89, 48 hrs): 80%
% Inh. (Adrenergic β1): 3%
% Inh. (Adrenergic α1D): 7%
% Inh. (Bradykinin B2): 4%
% Inh. (Dopamine D3): 6%
% Inh. [5]: -1%
% Inh. (Opiate κ(OP2, KOP)): 10%
Hepatic Microsome Stability, percent remaining at 1 hr [6]: 89.64%
% Inh. (Muscarinic M2): 5%
% Inh. (Histamine H1): -16%
% Inh. (Glutamate, NMDA, Glycine): 6%
% Inh. [7]: 11%
% Inh. (Calcium Channel N-Type): -18%
